Assay results: PubChem BioAssay AID2060605 (Molecular Pharmacology Branch, DTP, NCI, 2025)

Tested on: 947758-054-R-J2-PDC spheroid growth, percent test/control
Assay: Anticancer human tumor 947758-054-R-J2-PDC patient-derived colon adenocarcinoma cell line growth inhibition [CLK]
Settings: spheroids with HUVEC and MSC; for IC50: curve of first compound; for viability, T/C: stronger effect = lower value
Text: A high-throughput screen of multi-cell type tumor spheroids was designed to identify active combinations of […] and targeted small molecules. Complex spheroids include a stromal component modeled by human endothelial cells (HUVEC) and fibroblasts modeled by human mesenchymal stem cells (MSCs). The concentration ranges selected for each drug and investigational agent were based upon clinically achievable concentrations if the clinical Cmax of the agent was known.
Compounds. The drugs and investigational agents: cirtuvivint (SM08502; NSC835563), CC-671 (NSC850746), vemurafenib (NSC761431), tapotoclax (NSC804041), sotorasib (NSC818433), adagrasib (NSC831453), MRTX-1133 (NSC836407), BAY2416964 (NSC825713), copanlisib (NSC816437), inavolisib (NSC800729), abemaciclib (NSC768073), osimertinib (NSC779217), entinostat (NSC756642), eltanexor (KPT-8602, NSC794443), venetoclax (NSC766270), ceralasertib (NSC777638), bortezomib (NSC756655), olaparib (NSC753686), talazoparib (NSC767125), alisertib (NSC759677), peposertib (NSC802822), gemcitabine (NSC613327), 5-fluorouracil (NSC19893), SN-38 (NSC673596), oxaliplatin (NSC266046), paclitaxel (NSC125973), and doxorubicin (NSC123127), were obtained from the National Cancer Institute (NCI) Developmental Therapeutics Program Chemical Repository. The FDA-approved anticancer drug set is available from the Developmental Therapeutics Program at https://dtp.cancer.gov/organization/dscb/obtaining/available plates.htm. […] The stock solutions were prepared in dimethyl sulfoxide (DMSO, Sigma-Aldrich, St. Louis, MO, cat. D2650), except for the platinum complexes which were prepared in saline (Quality Biological, Gaithersburg, MD, cat. 114-055-101), at 800-fold the tested concentration and stored at -70 degrees C prior to their use. All drugs and investigational agents were tested over a range starting from a high concentration at or near the clinical Cmax and decreasing in half-log increments. If the clinical Cmax for an agent had not been determined, the highest concentration tested was 10 microM.
Cell Culture. All cells were maintained in an incubator at 37 degrees C and 5% CO2 with 95% humidity. The PDC lines were cultured according to standard operating procedures established by the NCI PDMR. Briefly, all PDCs were thawed and cultured in Matrigel-coated flasks prepared with a working solution of 1X Ham's F-12 nutrient mix, without supplementation (Invitrogen, Waltham, MA, cat. 11765054), 100 U/mL penicillin-streptomycin (Invitrogen, cat. 15140122), and 2.5% Matrigel (Corning Inc., Corning, NY, cat. 354248) for the first three passages. The 947758-054-R-J2-PDC line was cultured in 6B/Colon 1A media, which includes advanced DMEM/F-12 (Thermo Fisher Scientific, cat. 12634028), 10 mM HEPES (Thermo Fisher Scientific, cat. 15630080), 1X GlutaMAX supplement (Thermo Fisher Scientific, cat. 35050061), 0.1 mg/mL primocin (InvivoGen, cat. ant-pm-2), 10% defined fetal bovine serum, heat inactivated (HyClone Laboratories Inc., cat. SH30070.03HI), 1.25 mM N-Acetyl-L-cysteine (Sigma-Aldrich, cat. A9165), 10 mM nicotinamide (Sigma-Aldrich, cat. N0636), 1X B-27 supplement (Thermo Fisher Scientific, cat. 17504044), 1X N-2 supplement (Thermo Fisher Scientific, cat. 17502048), and 10 microM Y-27632 dihydrochloride (Tocris Bioscience, cat. 1254). The 876862-298-R-J1-PDC was cultured in 6E media, which includes all 6B/Colon 1A media components plus 50% L-WRN conditioned media (ATCC, cat. CRL-3276), 50 ng/mL recombinant human EGF recombinant protein (hEGF; Thermo Fisher Scientific, cat. PHG0311), 10 ng/mL recombinant human fibroblast growth factor 10 (hGFG-10; PeproTech, cat. 100-26), 1 ng/mL recombinant human fibroblast growth factor 2 (hFGF-2; PeproTech, cat. 100-18B), and 1 µM prostaglandin E2 (PGE2; Tocris, cat. 2296). The 227483-062-R1-J1-PDC line was cultured in Panc media, containing all 6E components except hFGF-2, with the addition of 500 nM SB-431542 (Selleckchem, cat. S1067) and 10 nM gastrin (Tocris, cat. 3006). […]

[1] = second compound 0.0316 µM, first compound 0.0316 µM
[2] = second compound 0.0316 µM, first compound 0.1 µM
[3] = second compound 0.0316 µM, first compound 0.316 µM
[4] = second compound 0.0316 µM, first compound 1 µM
[5] = second compound 0.0316 µM, first compound 3.16 µM
[6] = second compound 0.0316 µM, first compound 10 µM
[7] = second compound 0.1 µM, first compound 0.0316 µM
[8] = second compound 0.1 µM, first compound 0.1 µM
[9] = second compound 0.1 µM, first compound 0.316 µM
[10] = second compound 0.1 µM, first compound 1 µM
[11] = second compound 0.1 µM, first compound 3.16 µM
[12] = second compound 0.1 µM, first compound 10 µM
[13] = second compound 0.316 µM, first compound 0.0316 µM
[14] = second compound 0.316 µM, first compound 0.1 µM
[15] = second compound 0.316 µM, first compound 0.316 µM
[16] = second compound 0.316 µM, first compound 1 µM
[17] = second compound 0.316 µM, first compound 3.16 µM
[18] = second compound 0.316 µM, first compound 10 µM
[19] = second compound 1 µM, first compound 0.0316 µM
[20] = second compound 1 µM, first compound 0.1 µM
[21] = second compound 1 µM, first compound 0.316 µM
[22] = second compound 1 µM, first compound 1 µM
[23] = second compound 1 µM, first compound 3.16 µM
[24] = second compound 1 µM, first compound 10 µM
[25] = second compound 3.16 µM, first compound 0.0316 µM
[26] = second compound 3.16 µM, first compound 0.1 µM
[27] = second compound 3.16 µM, first compound 0.316 µM
[28] = second compound 3.16 µM, first compound 1 µM
[29] = second compound 3.16 µM, first compound 3.16 µM
[30] = second compound 3.16 µM, first compound 10 µM
[31] = second compound 10 µM, first compound 0.0316 µM
[32] = second compound 10 µM, first compound 0.1 µM
[33] = second compound 10 µM, first compound 0.316 µM
[34] = second compound 10 µM, first compound 1 µM
[35] = second compound 10 µM, first compound 3.16 µM
[36] = second compound 10 µM, first compound 10 µM
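Note: spheroids exposed to compounds for one week before readout.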
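Throughout, for viability, T/C: 100% = DMSO vehicle control wells.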

In the case of `O=C(c1cc(Cc2n[nH]c(=O)c3ccccc23)ccc1F)N1CCN(C(=O)C2CC2)CC1` + CNC(=O)c1ccc(Nc2nc(OC3CCCC3)c3c(-c4ccc5nc(C)oc5c4)c[nH]c3n2)c(OC)c1, the IC50 (second compound 0.0316 µM) is reported as > 10 µM, the IC50 (second compound 0.1 µM) is reported as > 10 µM and the IC50 (second compound 0.316 µM) is reported as > 10 µM. The IC50 (second compound 1 µM) was > 10 µM, the IC50 (second compound 3.16 µM) was 0.156 µM and the IC50 (second compound 10 µM) was < 0.0316 µM. The viability, T/C [1] was 101%, the viability, T/C [2] was 97.3% and the viability, T/C [3] was 96.3%. For the same compound, the viability, T/C [4] was 93.5%, the viability, T/C [5] was 113% and the viability, T/C [6] was 80.9%. The viability, T/C [7] was 110%, the viability, T/C [8] was 102% and the viability, T/C [9] was 100%. For the same compound, the viability, T/C [10] was 99.4%, the viability, T/C [11] was 110% and the viability, T/C [12] was 73.7%. It also gave a viability, T/C [13] of 94.3%, a viability, T/C [14] of 94.8% and a viability, T/C [15] of 64.5%. For the same compound, the viability, T/C [16] was 71.5%, the viability, T/C [17] was 103% and the viability, T/C [18] was 65%. For the same compound, the viability, T/C [19] was 63.2%, the viability, T/C [20] was 53% and the viability, T/C [21] was 53.7%. It also gave a viability, T/C [22] of 64.1%, a viability, T/C [23] of 69.2% and a viability, T/C [24] of 35.8%. It also gave a viability, T/C [25] of 56.2%, a viability, T/C [26] of 43.6% and a viability, T/C [27] of 45.4%. For the same compound, the viability, T/C [28] was 52.7%, the viability, T/C [29] was 54% and the viability, T/C [30] was 37.4%. It also gave a viability, T/C [31] of 47.9%, a viability, T/C [32] of 40.9% and a viability, T/C [33] of 41.5%. For the same compound, the viability, T/C [34] was 34.4%, the viability, T/C [35] was 35.2% and the viability, T/C [36] was 35.1%.

For `C#Cc1c(F)ccc2cc(O)cc(-c3ncc4c(N5CC6CCC(C5)N6)nc(OCC56CCCN5CC(F)C6)nc4c3F)c12` (stereo unspecified) + CNC(=O)c1ccc(Nc2nc(OC3CCCC3)c3c(-c4ccc5nc(C)oc5c4)c[nH]c3n2)c(OC)c1, the IC50 (second compound 0.0316 µM) was > 10 µM, the IC50 (second compound 0.1 µM) was > 10 µM and the IC50 (second compound 0.316 µM) was > 10 µM. The IC50 (second compound 1 µM) was 3.64 µM, the IC50 (second compound 3.16 µM) was < 0.0316 µM and the IC50 (second compound 10 µM) was < 0.0316 µM. The viability, T/C [1] was 82.3%, the viability, T/C [2] was 77.8% and the viability, T/C [3] was 79.1%. For the same compound, the viability, T/C [4] was 73.4%, the viability, T/C [5] was 77% and the viability, T/C [6] was 66.8%. It also gave a viability, T/C [7] of 88.6%, a viability, T/C [8] of 92.6% and a viability, T/C [9] of 79%. The viability, T/C [10] was 91.7%, the viability, T/C [11] was 103% and the viability, T/C [12] was 79.2%. It also gave a viability, T/C [13] of 64.9%, a viability, T/C [14] of 75.3% and a viability, T/C [15] of 66.6%. It also gave a viability, T/C [16] of 91%, a viability, T/C [17] of 77.4% and a viability, T/C [18] of 56.4%. It also gave a viability, T/C [19] of 44.4%, a viability, T/C [20] of 56.8% and a viability, T/C [21] of 47.4%. For the same compound, the viability, T/C [22] was 53.8%, the viability, T/C [23] was 55.8% and the viability, T/C [24] was 38.1%. For the same compound, the viability, T/C [25] was 43.2%, the viability, T/C [26] was 35.4% and the viability, T/C [27] was 40.4%. It also gave a viability, T/C [28] of 46.7%, a viability, T/C [29] of 44.4% and a viability, T/C [30] of 29.5%. For the same compound, the viability, T/C [31] was 36%, the viability, T/C [32] was 24.8% and the viability, T/C [33] was 30.9%. The viability, T/C [34] was 32.2%, the viability, T/C [35] was 31.7% and the viability, T/C [36] was 24.4%.

In the case of `C=CC(=O)N1CCN(c2nc(=O)n(-c3c(C)ccnc3C(C)C)c3nc(-c4c(O)cccc4F)c(F)cc23)C(C)C1` (stereo unspecified) + CNC(=O)c1ccc(Nc2nc(OC3CCCC3)c3c(-c4ccc5nc(C)oc5c4)c[nH]c3n2)c(OC)c1, the IC50 (second compound 0.0316 µM) is reported as > 10 µM, the IC50 (second compound 0.1 µM) is reported as > 10 µM and the IC50 (second compound 0.316 µM) is reported as 6.2 µM. The IC50 (second compound 1 µM) was < 0.0316 µM, the IC50 (second compound 3.16 µM) was < 0.0316 µM and the IC50 (second compound 10 µM) was < 0.0316 µM. It also gave a viability, T/C [1] of 64.6%, a viability, T/C [2] of 69.5% and a viability, T/C [3] of 68.2%. For the same compound, the viability, T/C [4] was 70.9%, the viability, T/C [5] was 65.9% and the viability, T/C [6] was 51.8%. The viability, T/C [7] was 78.4%, the viability, T/C [8] was 72.3% and the viability, T/C [9] was 66.1%. The viability, T/C [10] was 75.5%, the viability, T/C [11] was 68% and the viability, T/C [12] was 51.3%. It also gave a viability, T/C [13] of 70.4%, a viability, T/C [14] of 68.8% and a viability, T/C [15] of 47.1%. The viability, T/C [16] was 80.7%, the viability, T/C [17] was 77.5% and the viability, T/C [18] was 36.7%. For the same compound, the viability, T/C [19] was 43.3%, the viability, T/C [20] was 45.8% and the viability, T/C [21] was 36.9%. For the same compound, the viability, T/C [22] was 54.5%, the viability, T/C [23] was 45% and the viability, T/C [24] was 20%. It also gave a viability, T/C [25] of 43.1%, a viability, T/C [26] of 38.1% and a viability, T/C [27] of 40.9%. The viability, T/C [28] was 40.9%, the viability, T/C [29] was 31.2% and the viability, T/C [30] was 16%. For the same compound, the viability, T/C [31] was 32.1%, the viability, T/C [32] was 28.1% and the viability, T/C [33] was 28.6%. For the same compound, the viability, T/C [34] was 25.7%, the viability, T/C [35] was 21.1% and the viability, T/C [36] was 15.1%.
